The text below walks through data of patent US20240101528A1, “SUBSTITUTED PYRAZOLO PIPERIDINE CARBOXYLIC ACIDS” (BAYER AKTIENGESELLSCHAFT, priority 2020, published 2024).

Series [1] in a line: Pharmacokinetic parameters following intravenous administration in rats. It is filed as in vivo, male Wistar rats. Conditions: intravenous administration. As to the method:
(§1) B-5. Determination of Pharmacokinetic Parameters Following Intravenous and Oral Administration
(§2) The pharmacokinetic parameters of the compounds according to the invention were determined in male Wistar rats and/or in female beagles and/or in cynomolgus monkeys and/or in male CD-1 mice. Intravenous administration in the case of mice and rats was carried out by means of a species-specific plasma/DMSO formulation, and in the case of dogs and monkeys by means of a water/PEG400/ethanol formulation. In all species, oral administration of the dissolved substance was performed via gavage, based on a water/PEG400/ethanol formulation.
(§3) An internal standard (which may also be a chemically unrelated substance) was added to the samples of the compounds of the invention, calibration samples and qualifiers, and there followed protein precipitation by means of acetonitrile in excess. Addition of a buffer solution matched to the LC conditions, and subsequent vortexing, was followed by centrifugation at 1000 g. The supernatant was analysed by LC-MS/MS using C18 reversed-phase columns and variable mobile phase mixtures. The substances were quantified via the peak heights or areas from extracted ion chromatograms of specific selected ion monitoring experiments.
(§4) The plasma concentration/time plots determined were used to calculate the pharmacokinetic parameters such as AUC, Cmax, t1/2 (terminal half-life), F (bioavailability), MRT (mean residence time) and CL (clearance), by means of a validated pharmacokinetic calculation program.
(§5) Since the substance quantification was performed in plasma, it was necessary to determine the blood/plasma distribution of the substance in order to be able to adjust the pharmacokinetic parameters correspondingly. For this purpose, a defined amount of substance was incubated in K3 EDTA whole blood of the species in question in a rocking roller mixer for 20 min. After centrifugation at 1000 g, the plasma concentration was measured (by means of LC-MS/MS; see above) and determined by calculating the ratio of the Cblood/Cplasma value.

The target in series [2] is T1, recombinant guanylate cyclase reporter cell line (Rattus norvegicus, UniProt P20595).
T1 construct: expressed in transfected cells
T1 sequence (P20595 1-619): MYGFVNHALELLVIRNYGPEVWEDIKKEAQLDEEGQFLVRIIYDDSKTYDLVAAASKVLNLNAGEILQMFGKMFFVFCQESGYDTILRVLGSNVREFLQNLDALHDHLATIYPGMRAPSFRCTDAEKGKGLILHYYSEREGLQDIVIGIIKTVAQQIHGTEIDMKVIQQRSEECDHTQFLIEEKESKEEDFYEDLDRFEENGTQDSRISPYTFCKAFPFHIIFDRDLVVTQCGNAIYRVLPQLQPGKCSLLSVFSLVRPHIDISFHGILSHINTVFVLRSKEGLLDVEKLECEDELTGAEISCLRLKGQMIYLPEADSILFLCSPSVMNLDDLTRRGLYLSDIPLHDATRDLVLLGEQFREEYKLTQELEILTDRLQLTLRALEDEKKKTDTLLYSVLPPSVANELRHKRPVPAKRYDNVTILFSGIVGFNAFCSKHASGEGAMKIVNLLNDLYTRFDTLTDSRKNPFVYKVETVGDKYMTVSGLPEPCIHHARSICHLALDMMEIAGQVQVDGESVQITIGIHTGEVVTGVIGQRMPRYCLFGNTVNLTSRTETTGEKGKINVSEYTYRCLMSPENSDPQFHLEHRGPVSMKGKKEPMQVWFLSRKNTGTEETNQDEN
T1 sequence (P19686 1-690 partner): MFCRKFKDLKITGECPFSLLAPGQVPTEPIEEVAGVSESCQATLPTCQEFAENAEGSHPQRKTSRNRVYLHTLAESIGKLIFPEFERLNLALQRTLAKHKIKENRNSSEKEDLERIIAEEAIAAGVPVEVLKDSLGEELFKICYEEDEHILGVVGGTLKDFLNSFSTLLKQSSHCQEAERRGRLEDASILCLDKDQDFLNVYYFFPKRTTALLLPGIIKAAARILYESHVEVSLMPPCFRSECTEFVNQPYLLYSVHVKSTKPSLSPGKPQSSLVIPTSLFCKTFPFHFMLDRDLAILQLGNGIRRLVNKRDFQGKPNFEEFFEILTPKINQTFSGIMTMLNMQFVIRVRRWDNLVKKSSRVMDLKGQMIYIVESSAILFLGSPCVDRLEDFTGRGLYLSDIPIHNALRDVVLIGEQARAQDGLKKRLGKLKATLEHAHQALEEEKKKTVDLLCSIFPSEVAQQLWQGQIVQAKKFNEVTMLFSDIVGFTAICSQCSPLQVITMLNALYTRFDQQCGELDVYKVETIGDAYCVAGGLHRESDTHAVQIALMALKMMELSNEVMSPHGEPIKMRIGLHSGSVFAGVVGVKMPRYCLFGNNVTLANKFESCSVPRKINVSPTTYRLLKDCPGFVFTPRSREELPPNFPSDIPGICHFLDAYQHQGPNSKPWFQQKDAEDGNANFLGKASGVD
The experiment in a line: Effect on a recombinant guanylate cyclase reporter cell line. The format is cell-based. Conditions: for MEC: minimum effective concentration. As to the method:
B-1. Effect on a Recombinant Guanylate Cyclase Reporter Cell Line
The cellular activity of the compounds according to the invention was determined using a recombinant guanylate cyclase reporter cell line, as described in F. Wunder et al., Anal. Biochem. 339, 104-112 (2005).

Series [3] in a line: Pharmacokinetic parameters following oral administration in rats. It is filed as in vivo, male Wistar rats. The note with it: for F: bioavailability. The procedure: as §1, §2, §3, §4, §5
Where [4] appears, read: male, Wistar, rat, plasma, read-out: t½ (converted).

Where a name gives a salt, the structure may show the parent alone. Bounds are passed on as bounds.

In the case of `O=C(O)c1cnn(C2CCCN(c3cc(Cl)ccc3-c3ccc(N4CCN(CC5CC5)CC4)cc3)C2)c1C(F)F` (single isomer, unassigned; enantiomer 2) [Example 11, 1-(1-{4-Chloro-4′-[4-(cyclopropylmethyl)piperazin-1-yl] [biphenyl]-2-yl}piperidin-3-yl)-5-(difluoromethyl)-1H-pyrazole-4-carboxylic acid hydrochloride (Enantiomer 2)], the values for the AUCnorm in series [1] and in series [3] were 1.23 kg·h/L and 0.70 kg·h/L, respectively. In series [2], the MEC was less than 0.3 nM. Besides, the F in series [3] stood at 58.2%.
As for `O=C(O)c1cnn(C2CCCN(c3cc(Cl)ccc3-c3ccc(N4CCN(CC(F)F)CC4)cc3)C2)c1C(F)F` (single isomer, unassigned; enantiomer 2) [Example 19, 1-[1-{4-Chloro-4′-[4-(2,2-difluoroethyl)piperazin-1-yl][biphenyl]-2-yl}piperidin-3-yl]-5-(difluoromethyl)-1H-pyrazole-4-carboxylic acid hydrochloride (Enantiomer 2)], the AUCnorm in series [1] stood at 3.09 kg·h/L; in series [3], 0.25 kg·h/L. Also, the MRT (commonly a mean duration of stay, worked out from the concentration-time curve) in series [1] (male, Wistar, rat, plasma) worked out at 5.66 h; in series [3] (male, Wistar, rat, plasma, read-out: MRT) it was 7.46 h. The clearance in series [1] (male, Wistar, rat, plasma, read-out: CLplasma (converted)) is 5.33 mL/min/kg. Moreover, the half-life in series [1] (setting [4]) was 4.24 h; in series [3] (setting [4]), 4.65 h. The EC50 (in general, the midpoint of the concentration-response curve) in series [2] (half maximal effective concentration) was 1.9 nM. Further, in series [2], the MEC is 0.3 nM. The compound further registered a F in series [3] of 8.01%.
For `O=C(O)c1cnn(C2CCCN(c3cc(Cl)ccc3-c3ccc(N4CCN(CC(F)(F)F)CC4)cc3)C2)c1C(F)F` (single isomer, unassigned; enantiomer 2) [Example 21, 1-[1-[5-Chloro-2-[4-[4-(2,2,2-trifluoroethyl)piperazin-1-yl]phenyl]phenyl]-3-piperidyl]-5-(difluoromethyl)pyrazole-4-carboxylic acid (Enantiomer 2)], the AUCnorm in series [1] stood at 7.23 kg·h/L. Also, the MEC in series [2] came out at 1.6 nM. In series [3], the AUCnorm turned out to be 4.04 kg·h/L and the F stood at 56.1%.
